Patent US12606561B2, “Substituted pyrazolo[1,5-a][1,3,5]triazines as CDK inhibitors” (QURIENT CO., LTD., priority 2018, dated 2026)
pIC50: −log10 of the molar value.

What was measured:
CDK1/Cyclin B = target: T1, CDK1/Cyclin B (Homo sapiens, UniProt P06493); test: Enzymatic assay for CDK1 (LANCE Ultra kinase assay, FRET based); assay type: biochemical; conditions: ATP at Km; read-out: CDK1 enzymatic activity IC50
T1 construct: purchased Invitrogen PR4768C
Outline: (§1)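 Purified CDK7/Cyclin H/MNAT1 or CDK1/Cyclin B complexes were tested for inhibition at Km ATP. Phosphorylation of a ULight-labelled peptide was detected by FRET with a Europium anti-phospho antibody (LANCE Ultra).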

A2780 = A2780 viability assay (CellTiter-Glo, 72 hours); assay type: cell-based; conditions: Homo sapiens; A2780 cells
Outline: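 CellTiter-Glo luminescence measured viability after 72 h of compound exposure (0.0015–10 uM; DMSO below 0.1%) at 37 °C, 5% CO2, run in duplicate. Dosing began 24 h post-seeding in RPMI-1640/10% FBS at 1×10^4 (MV4-11), 5×10^3 (OVCAR-3) or 1×10^3 (A2780) cells/well.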

CDK7/Cyclin H/MNAT1 = target: T2, CDK7/Cyclin H/MNAT1 (Homo sapiens, UniProt P50613); test: Enzymatic assay for CDK7 (LANCE Ultra kinase assay, FRET based); assay type: biochemical; conditions: for pIC50: ATP at Km
T2 construct: purchased Invitrogen PR6749B
T2 sequence (P50613 whole entry): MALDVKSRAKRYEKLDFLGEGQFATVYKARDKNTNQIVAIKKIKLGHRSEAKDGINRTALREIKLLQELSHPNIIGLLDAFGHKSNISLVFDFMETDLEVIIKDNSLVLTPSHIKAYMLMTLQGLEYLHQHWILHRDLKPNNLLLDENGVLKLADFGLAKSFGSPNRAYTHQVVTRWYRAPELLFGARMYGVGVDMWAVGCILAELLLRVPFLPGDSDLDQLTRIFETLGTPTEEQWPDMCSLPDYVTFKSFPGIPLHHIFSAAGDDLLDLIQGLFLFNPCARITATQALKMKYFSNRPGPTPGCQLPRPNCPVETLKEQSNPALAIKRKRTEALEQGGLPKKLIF
T2 sequence (P51946 whole entry partner): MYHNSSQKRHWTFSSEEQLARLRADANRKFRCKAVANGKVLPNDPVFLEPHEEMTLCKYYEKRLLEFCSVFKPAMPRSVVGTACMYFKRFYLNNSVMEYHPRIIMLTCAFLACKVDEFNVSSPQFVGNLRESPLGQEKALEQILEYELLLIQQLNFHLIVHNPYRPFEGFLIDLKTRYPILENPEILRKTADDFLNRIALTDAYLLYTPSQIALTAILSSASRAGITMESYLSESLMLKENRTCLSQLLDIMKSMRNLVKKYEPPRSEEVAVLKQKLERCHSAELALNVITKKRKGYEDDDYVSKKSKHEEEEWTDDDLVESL
T2 sequence (P51948 whole entry partner): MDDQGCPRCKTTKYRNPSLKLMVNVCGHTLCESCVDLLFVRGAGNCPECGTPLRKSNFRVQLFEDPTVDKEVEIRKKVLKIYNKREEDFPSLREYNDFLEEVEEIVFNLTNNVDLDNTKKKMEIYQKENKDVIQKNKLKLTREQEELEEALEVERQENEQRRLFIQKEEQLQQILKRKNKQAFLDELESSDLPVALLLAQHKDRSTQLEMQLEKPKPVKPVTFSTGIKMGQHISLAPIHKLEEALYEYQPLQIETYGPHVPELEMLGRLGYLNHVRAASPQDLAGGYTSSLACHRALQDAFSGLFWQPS
Outline: as §1

CDK5/p25 = target: T3, CDK5/p25 (Homo sapiens, UniProt Q00535); test: Enzymatic assay for CDK5 (LANCE Ultra kinase assay, FRET based); assay type: biochemical; conditions: ATP at Km
T3 construct: purchased Invitrogen PR8543B
T3 sequence (Q00535 whole entry): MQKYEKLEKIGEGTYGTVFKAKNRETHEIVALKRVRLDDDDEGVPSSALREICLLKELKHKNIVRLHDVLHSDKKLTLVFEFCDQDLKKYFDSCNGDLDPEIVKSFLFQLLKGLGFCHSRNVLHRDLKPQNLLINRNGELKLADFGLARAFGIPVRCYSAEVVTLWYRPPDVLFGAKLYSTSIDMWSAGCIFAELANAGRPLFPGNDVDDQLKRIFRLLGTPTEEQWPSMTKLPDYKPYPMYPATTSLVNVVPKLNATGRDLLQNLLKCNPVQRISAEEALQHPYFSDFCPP
T3 sequence (Q15078 99-307 partner limits assumed): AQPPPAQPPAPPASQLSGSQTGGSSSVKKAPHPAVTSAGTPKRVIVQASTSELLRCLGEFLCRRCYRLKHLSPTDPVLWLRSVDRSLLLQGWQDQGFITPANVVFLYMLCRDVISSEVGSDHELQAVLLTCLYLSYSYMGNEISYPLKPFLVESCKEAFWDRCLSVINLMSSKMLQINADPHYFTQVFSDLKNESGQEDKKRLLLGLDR
Outline: (§2)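 Inhibition was measured at ATP Km with 68 nM ULight-MBP peptide and CDK2/Cyclin A ([…]) or CDK5/p25 ([…]), using 8-dose 4-fold compound dilutions from DMSO. Kinase reaction ran 60 min at 23° C, then Eu anti-phospho-MBP plus EDTA were added for another 60 min before the fluorescence read.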

CDK2/Cyclin A = target: T4, CDK2/Cyclin A (Homo sapiens, UniProt P24941); test: Enzymatic assay for CDK2 (LANCE Ultra kinase assay, FRET based); assay type: biochemical; conditions: ATP at Km
T4 construct: purchased Invitrogen PV6290
Outline: as §2

OVCAR-3 = OVCAR-3 viability assay (CellTiter-Glo, 72 hours); assay type: cell-based; conditions: Homo sapiens; OVCAR-3 cells
Method: Human […] cell line, MV4-11_(ATCC, Cat #CRL-9591), NSCLC (Non-small cell lung cancer) cell line H460 (ATCC, Cat #HTB-177), A2780 (ECACC, Cat #93112519) and OVCAR-3(ATCC, Cat #HTB-161) were obtained from ATCC. Cells were grown in RPMI-1640 media (Invitrogen, Cat #22400-089) supplemented with 10% FBS (Invitrogen, Cat #10099141) and 1% penicillin/streptomycin (Invitrogen, Cat #15070063) and cultured at 37° C., 5% CO2 in a humidified chamber. All cell lines were routinely tested for mycoplasma.
To effect of the CDK7 inhibitor to inhibit the growth of target cancer cells, viability assay were conducted a 72 hour time period. Briefly, the candidate cell line was plated in 96 well plate at the following density of cells respectively. 1×10^4 cells/well for MV4-11, 5×10^3 for H460 and OVCAR-3, and 1×10^3 for A2780. After 24 hours, the cells were treated with various concentrations of the compound (ranging from 0.0015 uM to 10 uM). DMSO solvent without compound served as a control and final DMSO concentration lest than 0.1%. After 72 hours of incubation at 37° C., 5% CO2 incubator, cells were analyzed for the viability using the CellTiter-Glo Luminescent Cell Viability Assay (Promega, Cat #G7570). All viability assays were performed in duplicate and Luminescence was read using an Envision (Perkin Elmer, USA). Data was analyzed using XLfit software.

T1 sequence (P06493 whole entry): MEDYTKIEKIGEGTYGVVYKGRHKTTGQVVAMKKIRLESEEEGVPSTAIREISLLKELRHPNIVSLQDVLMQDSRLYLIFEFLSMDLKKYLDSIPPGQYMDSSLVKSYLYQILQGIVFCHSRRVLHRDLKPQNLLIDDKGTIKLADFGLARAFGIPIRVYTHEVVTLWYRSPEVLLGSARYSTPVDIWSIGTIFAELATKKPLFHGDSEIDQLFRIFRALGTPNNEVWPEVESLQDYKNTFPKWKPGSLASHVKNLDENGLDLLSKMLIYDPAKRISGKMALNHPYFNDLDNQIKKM
T1 sequence (P14635 whole entry partner): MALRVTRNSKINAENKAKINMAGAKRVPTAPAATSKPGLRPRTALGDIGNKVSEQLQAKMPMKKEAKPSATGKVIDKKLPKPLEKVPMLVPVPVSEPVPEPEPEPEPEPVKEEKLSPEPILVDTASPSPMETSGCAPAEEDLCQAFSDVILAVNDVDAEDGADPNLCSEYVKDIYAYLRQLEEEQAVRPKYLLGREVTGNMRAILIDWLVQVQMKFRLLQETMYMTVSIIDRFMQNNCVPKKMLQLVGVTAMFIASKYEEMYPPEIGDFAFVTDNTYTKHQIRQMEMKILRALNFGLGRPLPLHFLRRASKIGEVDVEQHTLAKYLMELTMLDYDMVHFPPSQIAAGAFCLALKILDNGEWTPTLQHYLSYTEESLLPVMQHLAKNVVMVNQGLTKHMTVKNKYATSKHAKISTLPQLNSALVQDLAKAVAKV

| pIC50 (CDK1/Cyclin B) | pIC50 (A2780) | pIC50 (CDK7/Cyclin H/MNAT1) | CDK1/CDK7: Selectivity of CDK7 inhibition over CDK1 inhibition (CDK7/Cyclin H/MNAT1) | CDK2/CDK7: Selectivity of CDK7 inhibition over CDK2 inhibition (CDK7/Cyclin H/MNAT1) | CDK5/CDK7: Selectivity of CDK7 inhibition over CDK5 inhibition (CDK7/Cyclin H/MNAT1) | pIC50 (CDK5/p25) | pIC50 (CDK2/Cyclin A) | pIC50 (OVCAR-3) | Structure (SMILES) |
| --- | --- | --- | --- | --- | --- | --- | --- | --- | --- |
| < 6.00 | > 6.00 | 6.00 to 7.00 | B (B indicates 50 < [fold] ≤ 500) | B (B indicates 50 < [fold] ≤ 500) | B (B indicates 50 < [fold] ≤ 500) | < 6.00 | < 6.00 | > 6.00 | C=C(F)C(=O)Nc1ccc2c(-c3ccccc3CNc3nc(N[C@H]4CC[C@@H](OC)C4)nc4c(C(C)C)cnn34)nccc2c1 [Compound 96] |
| < 6.00 | > 6.00 | 6.00 to 7.00 | B (B indicates 50 < [fold] ≤ 500) | B (B indicates 50 < [fold] ≤ 500) | B (B indicates 50 < [fold] ≤ 500) | < 6.00 | < 6.00 | > 6.00 | C=C(F)C(=O)Nc1ccc2c(-c3ccccc3CNc3nc(NC4CC(OC)C4)nc4c(C(C)C)cnn34)nccc2c1 (stereo not drawn) [Compound 99] |
| < 6.00 | > 6.00 | 6.00 to 7.00 | B (B indicates 50 < [fold] ≤ 500) | B (B indicates 50 < [fold] ≤ 500) | B (B indicates 50 < [fold] ≤ 500) | < 6.00 | < 6.00 | > 6.00 | CC(C)c1cnn2c(NCc3ccccc3-c3nccc4cc(NC(=O)/C=C/CN(C)C)ccc34)nc(N3CC4COCC4C3)nc12 (stereo not drawn) [Compound 104] |
| < 6.00 | > 6.00 | 6.00 to 7.00 | B (B indicates 50 < [fold] ≤ 500) | B (B indicates 50 < [fold] ≤ 500) | B (B indicates 50 < [fold] ≤ 500) | < 6.00 | < 6.00 | > 6.00 | CC(C)c1cnn2c(NCc3ccccc3-c3nccc4cc(NC(=O)/C=C/CN(C)C)ccc34)nc(NC3CCS(=O)(=O)CC3)nc12 [Compound 107] |
| < 6.00 | > 6.00 | 6.00 to 7.00 | C (C indicates [fold] ≤ 50) | C (C indicates [fold] ≤ 50) | C (C indicates [fold] ≤ 50) | < 6.00 | < 6.00 | > 6.00 | CC(C)c1cnn2c(NCc3ccccc3-c3nccc4cc(NC(=O)/C=C/CN(C)C)ccc34)nc(N3CC4(COC4)C3)nc12 [Compound 108] |
| < 6.00 | > 6.00 | > 7.00 | B (B indicates 50 < [fold] ≤ 500) | B (B indicates 50 < [fold] ≤ 500) | B (B indicates 50 < [fold] ≤ 500) | < 6.00 | < 6.00 | > 6.00 | CC(C)c1cnn2c(NCc3ccccc3-c3nccc4cc(NC(=O)/C=C/CN(C)C)ccc34)nc(N3CCC4(CC3)OCCO4)nc12 [Compound 110] |

Second part, the molecule before the results:

| Structure (SMILES) | pIC50 (CDK1/Cyclin B) | pIC50 (A2780) | pIC50 (CDK7/Cyclin H/MNAT1) | CDK1/CDK7: Selectivity of CDK7 inhibition over CDK1 inhibition (CDK7/Cyclin H/MNAT1) | CDK2/CDK7: Selectivity of CDK7 inhibition over CDK2 inhibition (CDK7/Cyclin H/MNAT1) | CDK5/CDK7: Selectivity of CDK7 inhibition over CDK5 inhibition (CDK7/Cyclin H/MNAT1) | pIC50 (CDK5/p25) | pIC50 (CDK2/Cyclin A) | pIC50 (OVCAR-3) |
| --- | --- | --- | --- | --- | --- | --- | --- | --- | --- |
| C=C(F)C(=O)Nc1ccc2c(-c3ccccc3CNc3nc(N4CCCC(OC)CC4)nc4c(C(C)C)cnn34)nccc2c1 (stereo not drawn) [Compound 100] | < 6.00 | 5.00 to 6.00 | < 6.00 | C (C indicates [fold] ≤ 50) | C (C indicates [fold] ≤ 50) | C (C indicates [fold] ≤ 50) | < 6.00 | < 6.00 | 5.00 to 6.00 |
| CC(C)c1cnn2c(NCc3ccccc3-c3nccc4cc(NC(=O)/C=C/CN(C)C)ccc34)nc(N3CCc4sccc4C3)nc12 [Compound 101] | < 6.00 | > 6.00 | 6.00 to 7.00 | B (B indicates 50 < [fold] ≤ 500) | B (B indicates 50 < [fold] ≤ 500) | B (B indicates 50 < [fold] ≤ 500) | < 6.00 | < 6.00 | > 6.00 |
| CC(C)c1cnn2c(NCc3ccccc3-c3nccc4cc(NC(=O)/C=C/CN(C)C)ccc34)nc(N3C[C@H]4CC[C@@H](C3)O4)nc12 [Compound 102] | < 6.00 | > 6.00 | 6.00 to 7.00 | B (B indicates 50 < [fold] ≤ 500) | B (B indicates 50 < [fold] ≤ 500) | B (B indicates 50 < [fold] ≤ 500) | < 6.00 | < 6.00 | > 6.00 |
| COC1CC2CCC(C1)N2c1nc(NCc2ccccc2-c2nccc3cc(NC(=O)/C=C/CN(C)C)ccc23)n2ncc(C(C)C)c2n1 (stereo not drawn) [Compound 103] | < 6.00 | > 6.00 | > 7.00 | B (B indicates 50 < [fold] ≤ 500) | B (B indicates 50 < [fold] ≤ 500) | B (B indicates 50 < [fold] ≤ 500) | < 6.00 | < 6.00 | > 6.00 |
| CC(C)c1cnn2c(NCc3ccccc3-c3nccc4cc(NC(=O)/C=C/CN(C)C)ccc34)nc(N3CCC(C#N)CC3)nc12 [Compound 105] | < 6.00 | > 6.00 | 6.00 to 7.00 | B (B indicates 50 < [fold] ≤ 500) | B (B indicates 50 < [fold] ≤ 500) | B (B indicates 50 < [fold] ≤ 500) | < 6.00 | < 6.00 | > 6.00 |
| CC(C)c1cnn2c(NCc3ccccc3-c3nccc4cc(NC(=O)/C=C/CN(C)C)ccc34)nc(N3CCC(=O)CC3)nc12 [Compound 106] | < 6.00 | > 6.00 | 6.00 to 7.00 | C (C indicates [fold] ≤ 50) | C (C indicates [fold] ≤ 50) | C (C indicates [fold] ≤ 50) | < 6.00 | < 6.00 | > 6.00 |
| CC(C)c1cnn2c(NCc3ccccc3-c3nccc4cc(NC(=O)/C=C/CN(C)C)ccc34)nc(NC[C@H]3CNC[C@@H]3O)nc12 [Compound 109] | < 6.00 | 5.00 to 6.00 | > 7.00 | A (A indicates [fold] > 500) | A (A indicates [fold] > 500) | A (A indicates [fold] > 500) | < 6.00 | < 6.00 | 5.00 to 6.00 |
| C=CC(=O)Nc1ccc2c(-c3ccccc3CNc3nc(NC[C@H]4CNC[C@@H]4O)nc4c(C(C)C)cnn34)nccc2c1 [Compound 111] | < 6.00 | > 6.00 | > 7.00 | A (A indicates [fold] > 500) | A (A indicates [fold] > 500) | A (A indicates [fold] > 500) | < 6.00 | < 6.00 | > 6.00 |
